Assay results taken from patent publication US6723897B2, “Methods for controlling gibberellin levels” (Monsanto Technology, LLC, priority 1998, dated 2004).

How the values were obtained:
[1] = tested on: wild-type soybean line A4922; test: Field trial of seed coating application rates, wild-type soybean
Protocol: (§1) GA3, GA3-3-acetate, GA5, GA9, and GA12 are evaluated in further field trials. […] The objectives of these tests are: 1) to determine if seed coatings, as compared to imbibition, of GA compounds facilitate rescue of constitutively GA-deficient transgenic dwarf soybeans (transgenic lines 719−2 plus 719+17) without causing elongation of wild-type soybeans (line A4922), and 2) to determine the seed treatment rate ranges for each of the selected GA compounds that would provide rescue of constitutively GA-deficient transgenic dwarf soybeans (transgenic lines 719−2 plus 719+17) without causing elongation of wild-type soybeans (line A4922).
(§2) Seeds are treated with GA3, GA5, GA9, GA12, and GA3-3-acetate at rates of 0, 0.1, 1, 10, and 100 μg/seed. These GA compounds are applied to the seeds using a Hege 11 seed treater (Hans-Ulrich Hege GmbH & Co., Waldenburg, Germany); 100% acetone is used as the carrier solvent. The amount of liquid introduced into the seed treater is six fluid ounces/100 lbs seed rate. In addition, GA12 is tested at 50 μg/seed. The untreated control (UTC) consisted of dry, untreated seeds. Seeds of constitutively GA-deficient transgenic dwarf soybean line 719 and wild-type A4922 are sown in both light and heavy soil. The planting depth is 0.5 to 1 inch (1.27 to 2.54 cm); watering is via drip irrigation. The experiment is carried out in three repetitions, using 25 seeds/plot (one five foot (152.4 cm) long row) for line 719, and 75 seeds/plot (two eight foot (243.8 cm) rows) for line A4922. Observations included total emergence, number of dwarfs not rescued, uniformity in plant height, average plant height, visual notes, and digital photos.
(§3) In all the experiments reported in Tables 17-24, treatments are replicated three times in a randomized block design. Data are analyzed using LSD (least significant difference) 0.05 probability using the PRM 5.0 Statistical Analysis Program (SAS Institute, North Carolina).

[2] = tested on: constitutively GA-deficient transgenic dwarf soybean line 719; test: Field trial of seed coating application rates, GA-deficient soybean; format: in vivo, Glycine max; details: seed coating
Protocol: as §1, §2, §3

[3] = tested on: non-transgenic soybean line A4922; test: Field trial of seed coatings under soil compaction / different soils, wild-type soybean; format: in vivo, Glycine max; details: for Count (emergence) / Height (total plant height): A4922
Protocol: The second trial (data reported in Tables 22-24) tested the precursors under conditions of soil compaction.
As noted above, the second trial tested the noted precursors under conditions of soil compaction. These experiments are performed in the same manner as in the first trial, except that the soil is compacted with an all-terrain vehicle.
“Height” equals total plant height in cm.

[4] = tested on: wild-type soybean line A3237; test: Experiment II second greenhouse test, seed imbibition, wild-type soybean; format: in vivo, Glycine max; details: 0.025 mg/ml; seeds imbibed 6 hours
Protocol: (The compounds are tested in Experiment I at only one concentration, i.e., 0.25 mg/ml). Test tubes contained […] of ethanol solution per tube. Final volumes are made up to 30 ml with deionized water. After shaking, the treatment solutions (15 ml each) are transferred to each of two 50 ml test tubes. […] Twenty seeds are used in each treatment. Dry seed, ethanol/water-imbibed seed (1% ethanol in water, v/v), and water-imbibed seeds are included as controls. Seeds are imbibed for 6 hours in the test solutions, then planted in bread pans containing Metromix 350 (The Scotts Company, Marysville, Ohio), and covered with 0.5″ Metro-mix. Covered pans are transferred to the greenhouse and subirrigated. Illumination is at a light intensity of 300-400 μmolm^−2s^−1 photosynthetic photon flux; 16 hours light/8 hours dark. Subsequent waterings are also through sub-irrigation until the test is terminated three weeks later. Observations included the number of dwarf, intermediate, and tall plants; plant height; uniformity of rescue; and any visual effects. Digital photographs are also taken.

[5] = Heavy soil - Loose, target rate 0.5 μg/seed, Table 23
[6] = Heavy soil - Loose, target rate 2.0 μg/seed, Table 23
[7] = Heavy soil - Loose, target rate 4.0 μg/seed, Table 23
[8] = Heavy soil - compacted, target rate 0.5 μg/seed, Table 23
[9] = Heavy soil - compacted, target rate 2.0 μg/seed, Table 23
[10] = Heavy soil - compacted, target rate 4.0 μg/seed, Table 23
[11] = Heavy soil - loose, target rate 0.5 μg/seed, Table 22
[12] = Heavy soil - loose, target rate 2.0 μg/seed, Table 22
[13] = Light soil - Compacted, target rate 0.5 μg/seed, Table 22
[14] = Light soil - Compacted, target rate 2.0 μg/seed, Table 22
[15] = Light soil - Loose, target rate 0.5 μg/seed, Table 24
[16] = Light soil - Loose, target rate 2.0 μg/seed, Table 24
[17] = Light soil - Loose, target rate 4.0 μg/seed, Table 24
[18] = Light soil - compacted, target rate 0.5 μg/seed, Table 24
[19] = Light soil - compacted, target rate 2.0 μg/seed, Table 24
[20] = Light soil - compacted, target rate 4.0 μg/seed, Table 24

In the case of C=C1C[C@]23C[C@@]1(O)CC[C@H]2[C@@]12CC=C[C@@](C)(C(=O)O1)[C@H]2[C@@H]3C(=O)O [GA5], the “A4922 Height, cm, Heavy soil” value ([1]; 0.1 μg compound per seed) is reported as 4.3 ghi cm, the “A4922 Height, cm, Light soil” value ([1]; 0.1 μg compound per seed) is reported as 6.0 fgh cm and the “No. A4922 Emerged, Heavy soil” value ([1]; 0.1 μg compound per seed) is reported as 32.3 b-g. For the same compound, the “No. A4922 Emerged, Light soil” value ([1]; 0.1 μg compound per seed) was 51.7 bcd, the “A4922 Height, cm, Heavy soil” value ([1]; 1 μg compound per seed) was 7.0 ef cm and the “A4922 Height, cm, Light soil” value ([1]; 1 μg compound per seed) was 7.3 fg·cm. The “No. A4922 Emerged, Heavy soil” value ([1]; 1 μg compound per seed) was 37.3 b-f, the “No. A4922 Emerged, Light soil” value ([1]; 1 μg compound per seed) was 47.3 c-g and the “A4922 Height, cm, Heavy soil” value ([1]; 10 μg compound per seed) was 17.3 b cm. For the same compound, the “A4922 Height, cm, Light soil” value ([1]; 10 μg compound per seed) was 16.3 c cm, the “No. A4922 Emerged, Heavy soil” value ([1]; 10 μg compound per seed) was 32.7 b-g and the “No. A4922 Emerged, Light soil” value ([1]; 10 μg compound per seed) was 45.7 c-h. For the same compound, the “A4922 Height, cm, Heavy soil” value ([1]; 100 μg compound per seed) was 22.3 a cm, the “A4922 Height, cm, Light soil” value ([1]; 100 μg compound per seed) was 29.7 a cm and the “No. A4922 Emerged, Heavy soil” value ([1]; 100 μg compound per seed) was 38.3 b-e. For the same compound, the “No. A4922 Emerged, Light soil” value ([1]; 100 μg compound per seed) was 46.7 c-g, the “719 Height, cm, Heavy soil” value ([2]; 0.1 μg compound per seed) was 5.0 def cm and the “719 Height, cm, Light soil” value ([2]; 0.1 μg compound per seed) was 4.3 fg·cm. For the same compound, the “No. 719 Emerged, Heavy soil” value ([2]; 0.1 μg compound per seed) was 22.0 ab, the “No. 719 Emerged, Light soil” value ([2]; 0.1 μg compound per seed) was 21.7 ab and the “No. 719 Not Rescued, Heavy soil” value ([2]; 0.1 μg compound per seed) was 1.7 def. For the same compound, the “No. 719 Not Rescued, Light soil” value ([2]; 0.1 μg compound per seed) was 4.3 c, the “719 Height, cm, Heavy soil” value ([2]; 1 μg compound per seed) was 4.7 g·cm·days and the “719 Height, cm, Light soil” value ([2]; 1 μg compound per seed) was 6.3 e cm. For the same compound, the “No. 719 Emerged, Heavy soil” value ([2]; 1 μg compound per seed) was 21.0 abc, the “No. 719 Emerged, Light soil” value ([2]; 1 μg compound per seed) was 22.7 a and the “No. 719 Not Rescued, Heavy soil” value ([2]; 1 μg compound per seed) was 0.7 ef. The No. 719 Not Rescued, Light soil ([2]; 1 μg compound per seed) was 0, the “719 Height, cm, Heavy soil” value ([2]; 10 μg compound per seed) was 7.3 bc cm and the “719 Height, cm, Light soil” value ([2]; 10 μg compound per seed) was 11.3 bc cm. The “No. 719 Emerged, Heavy soil” value ([2]; 10 μg compound per seed) was 20.0 a-d, the “No. 719 Emerged, Light soil” value ([2]; 10 μg compound per seed) was 20.0 a-d and the “No. 719 Not Rescued, Heavy soil” value ([2]; 10 μg compound per seed) was 0.3 ef. For the same compound, the No. 719 Not Rescued, Light soil ([2]; 10 μg compound per seed) was 0.7, the “719 Height, cm, Heavy soil” value ([2]; 100 μg compound per seed) was 9.0 ab cm and the “719 Height, cm, Light soil” value ([2]; 100 μg compound per seed) was 12.0 b cm. The “No. 719 Emerged, Heavy soil” value ([2]; 100 μg compound per seed) was 12.3 ef, the “No. 719 Emerged, Light soil” value ([2]; 100 μg compound per seed) was 14.3 f and the “No. 719 Not Rescued, Heavy soil” value ([2]; 100 μg compound per seed) was 0 f. The No. 719 Not Rescued, Light soil ([2]; 100 μg compound per seed) was 0, the “Count (emergence)” value [3, 5] was 32.0 abc and the “Height (total plant height)” value [3, 5] was 5.3 g·cm·days. The “Count (emergence)” value [3, 6] was 24.7 de, the “Height (total plant height)” value [3, 6] was 6.7 bcd cm and the “Count (emergence)” value [3, 7] was 26.7 b-e. For the same compound, the “Height (total plant height)” value [3, 7] was 9.0 a cm, the “Count (emergence)” value [3, 8] was 13.7 abc and the “Height (total plant height)” value [3, 8] was 4.7 cde cm. The “Count (emergence)” value [3, 9] was 9.0 bcd, the “Height (total plant height)” value [3, 9] was 6.7 ab cm and the “Count (emergence)” value [3, 10] was 6.7 cde. The “Height (total plant height)” value [3, 10] was 6.7 ab cm, the “Count (emergence)” value [3, 11] was 32 abc and the “Height (total plant height)” value [3, 11] was 5.3 g·cm·days. The “Count (emergence)” value [3, 12] was 25 cde, the “Height (total plant height)” value [3, 12] was 6.7 bcd cm and the “Count (emergence)” value [3, 13] was 37 abc. For the same compound, the “Height (total plant height)” value [3, 13] was 6.7 cm·days, the “Count (emergence)” value [3, 14] was 22 de and the “Height (total plant height)” value [3, 14] was 9.0 c cm. The “Count (emergence)” value [3, 15] was 44.7 ab, the “Height (total plant height)” value [3, 15] was 6.0 fg·cm and the “Count (emergence)” value [3, 16] was 41.0 abc. For the same compound, the “Height (total plant height)” value [3, 16] was 10.0 bc cm, the “Count (emergence)” value [3, 17] was 43.3 abc and the “Height (total plant height)” value [3, 17] was 12.7 a cm. The “Count (emergence)” value [3, 18] was 36.7 abc, the “Height (total plant height)” value [3, 18] was 6.7 cm·days and the “Count (emergence)” value [3, 19] was 21.7 de. The “Height (total plant height)” value [3, 19] was 9.0 c cm, the “Count (emergence)” value [3, 20] was 18.7 def and the “Height (total plant height)” value [3, 20] was 11.7 a cm. For the same compound, the “plant height dose/response in wild-type line A4922 (FIG. 40)” value ([3]; ten days after planting, compacted soil) was “dose/response curves similar to that of GA3” and the “Significant Visual Observations on Line A3237” value [4] was “Normal height”.
